Measurements published in paper PMC7072624 (Biomolecules, 2020).

How the values were obtained:
CDK5 (CDK5/p25) = molecular target: T1, CDK5 (CDK5/p25) (Homo sapiens, UniProt Q00535); assay: in vitro kinase inhibition assay; type: biochemical
T1 construct: with p25

[1] = molecular target: T2, peroxisome proliferator-activated receptor γ (PPARγ) (Homo sapiens, UniProt P37231); assay: ([…] Å); competitive TR-FRET binding assay
T2 construct: gene PPARG
T2 sequence (P37231 223-505): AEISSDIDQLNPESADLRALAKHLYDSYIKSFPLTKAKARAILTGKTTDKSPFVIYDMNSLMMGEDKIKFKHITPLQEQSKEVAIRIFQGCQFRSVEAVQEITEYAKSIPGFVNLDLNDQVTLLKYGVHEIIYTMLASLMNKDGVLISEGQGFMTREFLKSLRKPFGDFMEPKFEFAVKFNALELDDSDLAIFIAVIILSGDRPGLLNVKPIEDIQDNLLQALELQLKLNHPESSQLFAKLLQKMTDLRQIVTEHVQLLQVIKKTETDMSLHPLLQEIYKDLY

PPARγ = molecular target: T3, PPARγ (Homo sapiens, UniProt P37231); assay: competitive TR-FRET binding assay (Lanthascreen)
T3 construct: gene PPARG
T3 sequence (P37231 1-505): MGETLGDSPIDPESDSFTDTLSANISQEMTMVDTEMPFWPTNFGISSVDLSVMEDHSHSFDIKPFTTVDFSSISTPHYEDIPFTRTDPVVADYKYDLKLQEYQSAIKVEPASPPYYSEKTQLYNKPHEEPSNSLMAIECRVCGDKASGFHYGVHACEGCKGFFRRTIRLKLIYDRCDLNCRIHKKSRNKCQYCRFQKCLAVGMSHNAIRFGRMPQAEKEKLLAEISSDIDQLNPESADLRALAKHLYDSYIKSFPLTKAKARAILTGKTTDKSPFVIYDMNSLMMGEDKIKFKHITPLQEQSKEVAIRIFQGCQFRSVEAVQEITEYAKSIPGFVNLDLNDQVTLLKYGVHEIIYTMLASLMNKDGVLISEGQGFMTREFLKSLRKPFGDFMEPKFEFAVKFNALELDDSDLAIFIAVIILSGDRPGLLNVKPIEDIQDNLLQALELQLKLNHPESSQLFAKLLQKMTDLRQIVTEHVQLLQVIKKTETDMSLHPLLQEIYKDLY

T1 sequence (Q00535 whole entry): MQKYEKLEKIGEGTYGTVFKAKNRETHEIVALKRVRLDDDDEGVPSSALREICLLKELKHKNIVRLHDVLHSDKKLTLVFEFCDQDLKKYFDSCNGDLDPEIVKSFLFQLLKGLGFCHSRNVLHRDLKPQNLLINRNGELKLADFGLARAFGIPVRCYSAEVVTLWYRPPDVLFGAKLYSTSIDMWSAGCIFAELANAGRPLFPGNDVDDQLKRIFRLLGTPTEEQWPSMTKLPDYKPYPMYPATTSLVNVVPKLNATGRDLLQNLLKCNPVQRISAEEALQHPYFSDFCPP
T1 sequence (Q15078 2-307 partner): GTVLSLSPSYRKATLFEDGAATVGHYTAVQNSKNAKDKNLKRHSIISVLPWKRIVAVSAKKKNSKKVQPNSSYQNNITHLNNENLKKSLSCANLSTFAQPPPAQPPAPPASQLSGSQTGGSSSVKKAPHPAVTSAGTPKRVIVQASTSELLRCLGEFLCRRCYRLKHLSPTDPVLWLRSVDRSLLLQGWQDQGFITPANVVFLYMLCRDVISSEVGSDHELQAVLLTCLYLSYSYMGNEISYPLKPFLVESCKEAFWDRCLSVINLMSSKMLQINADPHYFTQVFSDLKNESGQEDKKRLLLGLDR

Row | SMILES | IC50 (CDK5 (CDK5/p25)) [µM] | Ki [1] [µM] | Ki (PPARγ) [µM]
1 | COC(=O)[C@]1(Cc2ccc(O)c(CC=C(C)C)c2)OC(=O)C(O)=C1c1ccc(O)cc1 [butyrolactone I] | 0.17 | 2.64 | –
2 | COc1ccc(Cl)cc1C(=O)NCCc1ccc(S(=O)(=O)NC(=O)NC2CCCCC2)cc1 [glibenclamide] | – | – | 1.18
